Experimental data taken from patent publication US11845724B2, “USP30 inhibitors and uses thereof” (Vincere Biosciences, Inc., priority 2019, dated 2023).
Where a name gives a salt, the structure may show the parent alone. Read-outs that look alike come from different tables or passages of the source.

Target: recombinant USP30 (amino acids 57-517 of the human sequence) (Homo sapiens (Human), UniProt Q70CQ3)
Assay: In vitro USP30 biochemical assay (Ubiquitin-Rhodamine)
[1] = USP30 IC50 μM (avg), Ubiquitin-Rhodamine substrate 25 nM, 1.5 nM recombinant USP30
[2] = read-out: USP30 IC50 μM (avg), Ubiquitin-Rhodamine substrate 25 nM, 1.5 nM recombinant USP30

Chain of recombinant USP30 (amino acids 57-517 of the human sequence) (Q70CQ3 57-517): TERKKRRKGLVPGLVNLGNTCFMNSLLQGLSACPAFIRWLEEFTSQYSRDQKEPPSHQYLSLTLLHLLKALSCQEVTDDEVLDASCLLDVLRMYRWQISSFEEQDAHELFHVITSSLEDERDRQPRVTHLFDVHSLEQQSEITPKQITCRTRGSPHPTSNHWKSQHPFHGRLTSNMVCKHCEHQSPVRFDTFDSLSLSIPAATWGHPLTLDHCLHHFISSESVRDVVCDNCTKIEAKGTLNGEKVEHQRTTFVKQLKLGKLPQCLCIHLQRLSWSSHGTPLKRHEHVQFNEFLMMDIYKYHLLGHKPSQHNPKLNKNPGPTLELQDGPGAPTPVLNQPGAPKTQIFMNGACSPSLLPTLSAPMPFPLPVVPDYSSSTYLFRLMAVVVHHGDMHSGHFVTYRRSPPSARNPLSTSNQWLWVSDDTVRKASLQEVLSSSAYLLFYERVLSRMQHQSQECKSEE

| SMILES | IC50 [1] | IC50 [2] |
| --- | --- | --- |
| C#CC(C)(C)NS(=O)(=O)c1ccc(NC(=O)[C@H](Cc2ccccc2)NC(=O)c2ccc(F)cc2)cn1 [Compound I-177, (S)-4-fluoro-N-(1-(6-(N-(2-methylbut-3-yn-2-yl)sulfamoyl)pyridin-3-ylamino)-1-oxo-3-phenylpropan-2-yl)benzamide] | 0.05 to 1 µM |  |
| COc1cc(NC(=O)[C@H](Cc2ccccc2)NC(=O)c2ccc(F)cc2)ccc1S(=O)(=O)NC(C)(C)C#N [Compound I-180, (S)-N-(1-(4-(N-(2-cyanopropan-2-yl)sulfamoyl)-3-methoxyphenylamino)-1-oxo-3-phenylpropan-2-yl)-4-fluorobenzamide] | 0.05 to 1 µM |  |
| C#CC(C)(C)NS(=O)(=O)c1ccc(NC(=O)[C@H](Cc2ccccc2)NC(=O)c2ccc(F)cc2)cc1 [Compound I-173, (S)-4-fluoro-N-(1-(4-(N-(2-methylbut-3-yn-2-yl)sulfamoyl)phenylamino)-1-oxo-3-phenylpropan-2-yl)benzamide] |  | < 0.05 µM |
| COc1cc(NC(=O)[C@H](Cc2ccccc2)NC(=O)c2ccc(F)cc2)ccc1S(=O)(=O)NC(C)(C)CN1CCOCC1 [Compound I-153, (S)-4-fluoro-N-(1-(3-methoxy-4-(N-(2-methyl-1-morpholinopropan-2-yl)sulfamoyl)phenylamino)-1-oxo-3-phenylpropan-2-yl)benzamide] | 0.05 to 1 µM |  |
| COCC(C)(C)NS(=O)(=O)c1ccc(NC(=O)[C@H](Cc2ccccc2)N(C)C(=O)c2ccc(F)cc2)cc1OC [Compound I-159, (S)-4-fluoro-N-(1-(3-methoxy-4-(N-(1-methoxy-2-methylpropan-2-yl)sulfamoyl)phenylamino)-1-oxo-3-phenylpropan-2-yl)-N-methylbenzamide] | 1 to 10 µM |  |
| CCNS(=O)(=O)c1ccc(NC(=O)[C@H](Cc2ccccc2)NC(=O)c2ccc(F)cc2)c(OC)c1 [Compound I-143, (S)-N-(1-(4-(N-ethylsulfamoyl)-2-methoxyphenylamino)-1-oxo-3-phenylpropan-2-yl)-4-fluorobenzamide] | 1 to 10 µM |  |
| COc1cc(NC(=O)[C@H](Cc2ccccc2)NC(=O)c2ccc(F)cc2)ccc1S(=O)(=O)N[C@@H]1CCOC1 [Compound I-183, 4-fluoro-N-((S)-1-(3-methoxy-4-(N-((R)-tetrahydrofuran-3-yl)sulfamoyl)phenylamino)-1-oxo-3-phenylpropan-2-yl)benzamide] |  | < 0.05 µM |
| CC(C)(C)NS(=O)(=O)c1ccc(NC(=O)C2Cc3ccncc3N2C(=O)c2ccc(F)cc2)cc1 (stereo not shown) [Compound I-56, N-(4-(N-tert-butylsulfamoyl)phenyl)-1-(4-fluorobenzoyl)-2,3-dihydro-1H-pyrrolo[2,3-c]pyridine-2-carboxamide] |  | > 10 µM |
| C#CC(C)(C)NS(=O)(=O)c1ccc(NC(=O)[C@H](Cc2ccccc2)NC(=O)c2ccc(F)cc2)cc1OC [Compound I-181, (S)-4-fluoro-N-(1-(3-methoxy-4-(N-(2-methylbut-3-yn-2-yl)sulfamoyl)phenylamino)-1-oxo-3-phenylpropan-2-yl)benzamide] | 0.05 to 1 µM |  |
| CC(C)(C)NS(=O)(=O)c1ccc(NC(=O)[C@H](Cc2ccccc2)NC(=O)c2ccc(F)cc2)cc1C#N [Compound I-167, (S)-N-(1-(4-(N-tert-butylsulfamoyl)-3-cyanophenylamino)-1-oxo-3-phenylpropan-2-yl)-4-fluorobenzamide] |  | < 0.05 µM |
| CC(C)(C#N)NS(=O)(=O)c1ccc(NC(=O)[C@H](Cc2ccccc2)NC(=O)c2ccc(F)cc2)cn1 [Compound I-176, (S)-N-(1-(6-(N-(2-cyanopropan-2-yl)sulfamoyl)pyridin-3-ylamino)-1-oxo-3-phenylpropan-2-yl)-4-fluorobenzamide] | 0.05 to 1 µM |  |
| COCCC(C)(C)NS(=O)(=O)c1ccc(NC(=O)[C@H](Cc2ccccc2)NC(=O)c2ccc(F)cc2)cc1Cl [Compound I-171, (S)-N-(1-(3-chloro-4-(N-(4-methoxy-2-methylbutan-2-yl)sulfamoyl)phenylamino)-1-oxo-3-phenylpropan-2-yl)-4-fluorobenzamide] | 0.05 to 1 µM |  |
| N#Cc1cc(NC(=O)[C@H](Cc2ccccc2)NC(=O)c2ccc(F)cc2)ccc1S(=O)(=O)NC12CC(C1)C2 [Compound I-166, (S)-N-(1-(4-(N-bicyclo[1.1.1]pentan-1-ylsulfamoyl)-3-cyanophenylamino)-1-oxo-3-phenylpropan-2-yl)-4-fluorobenzamide] | 0.05 to 1 µM |  |
| CC(C)(C)NS(=O)(=O)c1ccc(NC(=O)[C@H](Cc2ccccc2)NC(=O)C2COC2)cc1 [Compound I-86, (S)-N-(1-(4-(N-tert-butylsulfamoyl)phenylamino)-1-oxo-3-phenylpropan-2-yl)oxetane-3-carboxamide] |  | > 10 µM |
| CC(C)(CCN1CCOCC1)NS(=O)(=O)c1ccc(NC(=O)[C@H](Cc2ccccc2)NC(=O)c2ccc(F)cc2)cc1 [Compound I-163, (S)-4-fluoro-N-(1-(4-(N-(2-methyl-4-morpholinobutan-2-yl)sulfamoyl)phenylamino)-1-oxo-3-phenylpropan-2-yl)benzamide] |  | < 0.05 µM |
| O=C(N[C@@H](Cc1ccccc1)C(=O)Nc1ccc(S(=O)(=O)NC23CC(C2)C3)c(Cl)c1)c1ccc(F)cc1 [Compound I-169, (S)-N-(1-(4-(N-bicyclo[1.1.1]pentan-1-ylsulfamoyl)-3-chlorophenylamino)-1-oxo-3-phenylpropan-2-yl)-4-fluorobenzamide] | 0.05 to 1 µM |  |

| SMILES | IC50 [1] | IC50 [2] |
| --- | --- | --- |
| O=C(N[C@@H](Cc1ccccc1)C(=O)Nc1ccc(S(=O)(=O)N[C@H]2CCOC2)nc1)c1ccc(F)cc1 [Compound I-178, 4-fluoro-N-((S)-1-oxo-3-phenyl-1-(6-(N-((S)-tetrahydrofuran-3-yl)sulfamoyl)pyridin-3-ylamino)propan-2-yl)benzamide] |  | < 0.05 µM |
| COc1cc(NC(=O)[C@H](Cc2ccccc2)NC(=O)c2ccc(F)cc2)ccc1S(=O)(=O)N[C@H]1CCOC1 [Compound I-182, 4-fluoro-N-((S)-1-(3-methoxy-4-(N-((S)-tetrahydrofuran-3-yl)sulfamoyl)phenylamino)-1-oxo-3-phenylpropan-2-yl)benzamide] |  | < 0.05 µM |
| O=C(N[C@@H](Cc1ccccc1)C(=O)Nc1ccc(S(=O)(=O)NC2COC2)c(Cl)c1)c1ccc(F)cc1 [Compound I-170, (S)-N-(1-(3-chloro-4-(N-oxetan-3-ylsulfamoyl)phenylamino)-1-oxo-3-phenylpropan-2-yl)-4-fluorobenzamide] | 0.05 to 1 µM |  |
| CC(C)(C)NS(=O)(=O)c1ccc(NC(=O)[C@H](Cc2ccccc2)NC(=O)c2ccc(F)cc2)cc1Cl [Compound I-168, (S)-N-(1-(4-(N-tert-butylsulfamoyl)-3-chlorophenylamino)-1-oxo-3-phenylpropan-2-yl)-4-fluorobenzamide] |  | < 0.05 µM |
| O=C(N[C@@H](Cc1ccccc1)C(=O)Nc1ccc(S(=O)(=O)N[C@H]2CCOC2)cc1)c1ccc(F)cc1 [Compound I-174, 4-fluoro-N-((S)-1-oxo-3-phenyl-1-(4-(N-((S)-tetrahydrofuran-3-yl)sulfamoyl)phenylamino)propan-2-yl)benzamide] |  | < 0.05 µM |
| COCC(C)(C)NS(=O)(=O)c1ccc(NC(=O)[C@H](Cc2ccccc2)N(C)C(=O)c2ccc(F)cc2)cc1 [Compound I-160, (S)-4-fluoro-N-(1-(4-(N-(1-methoxy-2-methylpropan-2-yl)sulfamoyl)phenylamino)-1-oxo-3-phenylpropan-2-yl)-N-methylbenzamide] | 1 to 10 µM |  |
| CN(C)S(=O)(=O)c1cccc2c(NC(=O)[C@H](Cc3ccccc3)NC(=O)c3ccc(F)cc3)cccc12 [Compound I-128, (S)-N-(1-(5-(N,N-dimethylsulfamoyl)naphthalen-1-ylamino)-1-oxo-3-phenylpropan-2-yl)-4-fluorobenzamide] |  | > 10 µM |
| CN(C)S(=O)(=O)c1cccc2c(NC(=O)[C@H](Cc3ccccc3)NC(=O)C3CCCCC3)cccc12 [Compound I-127, (S)-N-(1-(5-(N,N-dimethylsulfamoyl)naphthalen-1-ylamino)-1-oxo-3-phenylpropan-2-yl)cyclohexanecarboxamide] |  | > 10 µM |
| CC(C)(C#N)NS(=O)(=O)c1ccc(NC(=O)[C@H](Cc2ccccc2)NC(=O)c2ccc(F)cc2)cc1 [Compound I-172, (S)-N-(1-(4-(N-(2-cyanopropan-2-yl)sulfamoyl)phenylamino)-1-oxo-3-phenylpropan-2-yl)-4-fluorobenzamide] | 0.05 to 1 µM |  |
| COc1cc(NC(=O)[C@H](Cc2ccccc2)NC(=O)c2ccc(F)cc2)ccc1S(=O)(=O)NC(C)(C)CCN1CCOCC1 [Compound I-154, (S)-4-fluoro-N-(1-(3-methoxy-4-(N-(2-methyl-4-morpholinobutan-2-yl)sulfamoyl)phenylamino)-1-oxo-3-phenylpropan-2-yl)benzamide] | 0.05 to 1 µM |  |
| CN(C)CCNS(=O)(=O)c1ccc(NC(=O)[C@H](Cc2ccccc2)NC(=O)c2ccc(F)cc2)cn1 [Compound I-109, (S)-N-(1-(6-(N-(2-(dimethylamino)ethyl)sulfamoyl)pyridin-3-ylamino)-1-oxo-3-phenylpropan-2-yl)-4-fluorobenzamide formate] | 1 to 10 µM |  |
| O=C(N[C@@H](Cc1ccccc1)C(=O)Nc1ccc(S(=O)(=O)N[C@@H]2CCOC2)nc1)c1ccc(F)cc1 [Compound I-179, 4-fluoro-N-((S)-1-oxo-3-phenyl-1-(6-(N-((R)-tetrahydrofuran-3-yl)sulfamoyl)pyridin-3-ylamino)propan-2-yl)benzamide] | 0.05 to 1 µM |  |
| COc1cc(S(=O)(=O)NC23CC(C2)C3)ccc1NC(=O)[C@H](Cc1ccccc1)NC(=O)c1ccc(F)cc1 [Compound I-145, (S)-N-(1-(4-(N-bicyclo[1.1.1]pentan-1-ylsulfamoyl)-2-methoxyphenylamino)-1-oxo-3-phenylpropan-2-yl)-4-fluorobenzamide] | 1 to 10 µM |  |
| O=C(NC1(C(=O)Nc2ccc(S(=O)(=O)NC3CC3)cc2)Cc2ccccc2C1)c1ccc(F)cc1 [Compound I-103, N-(4-(N-cyclopropylsulfamoyl)phenyl)-2-(4-fluorobenzamido)-2,3-dihydro-1H-indene-2-carboxamide] |  | > 10 µM |
| O=C(N[C@@H](Cc1ccccc1)C(=O)Nc1ccc(S(=O)(=O)NCCO)nc1)c1ccc(F)cc1 [Compound I-110, (S)-4-fluoro-N-(1-(6-(N-(2-hydroxyethyl)sulfamoyl)pyridin-3-ylamino)-1-oxo-3-phenylpropan-2-yl)benzamide] | 0.05 to 1 µM |  |
